Test results as given in the supplement of paper PMC10331698.
± gives the standard deviation of the averaged measurements.

What was measured:
Assay in all cases: level (log10 ratio to DMSO vehicle control); higher = higher biomarker level / cell amount than vehicle control
Conditions in all cases: in DMSO
[1] = compound: FC(F)(F)C(F)(F)C(F)(F)C(F)(F)C(F)(F)CCI [1-Iodo-1H,1H,2H,2H-perfluoroheptane]
Experimental: (§1)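 BioMAP Diversity Plus panel of 12 human primary cell co-culture systems (3C, 4H, LPS, SAg, BT, BF4T, BE3C, CASM3C, HDF3CGF, KF3CT, MyoF, Mphg). Compounds were added 1 h before stimulation and left for 24 h (MyoF 48 h; BT 72 h for soluble read-outs or 6 d for IgG). Biomarkers were read by ELISA, cytotoxicity by SRB, PBMC viability and proliferation by Alamar Blue. Each well value was divided by the mean of 8 DMSO control wells on the same plate and log10 transformed; duplicate blinded samples were tested at 4 concentrations.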

[2] = compound: C=C(C)C(=O)OCCC(F)(F)C(F)(F)C(F)(F)C(F)(F)C(F)(C(F)(F)F)C(F)(F)F [(Perfluoro-5-methylhexyl)ethyl 2-methylprop-2-enoate]
Experimental: as §1

[3] = compound: O=C(O)C(F)(F)C(F)(F)C(F)F [4H-Perfluorobutanoic acid]
Experimental: as §1

[4] = compound: O=C(O)C(F)(F)OC(F)(F)C(F)(F)OC(F)(F)C(=O)O [Perfluoro-3,6-dioxaoctane-1,8-dioic acid]
Experimental: as §1

[5] = compound: FC(F)C(F)(F)COCC1CO1 [((2,2,3,3-Tetrafluoropropoxy)methyl)oxirane]
Experimental: as §1

Perfluoroheptanoic acid = compound: O=C(O)C(F)(F)C(F)(F)C(F)(F)C(F)(F)C(F)(F)C(F)(F)F [Perfluoroheptanoic acid]
Experimental: as §1

Heptafluorobutyramide = compound: NC(=O)C(F)(F)C(F)(F)C(F)(F)F [Heptafluorobutyramide]
Experimental: as §1

| Test System | level (log10) ([1]; 6700 nM) | level (log10) ([1]; 20000 nM) | level (log10) ([1]; 60000 nM) | level (log10) ([2]; 6700 nM) | level (log10) ([2]; 20000 nM) | level (log10) ([3]; 6700 nM) | level (log10) ([3]; 20000 nM) | level (log10) ([3]; 60000 nM) | level (log10) ([4]; 6700 nM) | level (log10) ([4]; 20000 nM) | level (log10) ([4]; 60000 nM) | level (log10) ([5]; 6700 nM) | level (log10) ([5]; 20000 nM) | level (log10) ([5]; 60000 nM) | level (log10) (Perfluoroheptanoic acid; 6700 nM) | level (log10) (Perfluoroheptanoic acid; 20000 nM) | level (log10) (Perfluoroheptanoic acid; 60000 nM) | level (log10) (Heptafluorobutyramide; 6700 nM) | level (log10) (Heptafluorobutyramide; 20000 nM) | level (log10) (Heptafluorobutyramide; 60000 nM) |
| --- | --- | --- | --- | --- | --- | --- | --- | --- | --- | --- | --- | --- | --- | --- | --- | --- | --- | --- | --- | --- |
| BF4T:PAI-I | 0.012 ± 0.014 | 0.005 ± 0.0014 | 0.0135 ± 0.016 | -0.01 ± 0.018 | -0.023 ± 0.0057 | 0.0025 ± 0.013 | -0.01 ± 0.0042 | 0.0105 ± 0.035 | 0.0085 ± 0.013 | 0.007 ± 0.0099 | 0.0095 ± 0.012 | -0.0075 ± 0.00071 | -0.011 ± 0.0028 | 0.0105 ± 0.026 | -0.0045 ± 0.019 | 0.0005 ± 0.025 | 0.0015 ± 0.028 | -0.0025 ± 0.0021 | -0.014 ± 0.016 | 0.005 ± 0.027 |
| BT:B cell Proliferation | -0.0065 ± 0.049 | 0.0095 ± 0.015 | -0.0815 ± 0.023 | -0.027 ± 0.011 | 0.001 ± 0.017 | 0.016 ± 0.0099 | 0.0055 ± 0.019 | 0.0065 ± 0.036 | 0.0095 ± 0.016 | -0.009 ± 0.023 | 0.0035 ± 0.0035 | -0.021 ± 0.02 | -0.014 ± 0.0042 | 0.0105 ± 0.0092 | 0.018 ± 0.0085 | 0.0145 ± 0.033 | 0.061 ± 0.028 | 0.0055 ± 0.018 | -0.02 ± 0.025 | -0.003 ± 0.03 |
| BT:sIL-6 | -0.0395 ± 0.043 | 0.0425 ± 0.033 | -0.077 ± 0.0099 | -0.0095 ± 0.025 | 0.0305 ± 0.073 | -0.008 | -0.046 ± 0.031 | -0.0915 ± 0.026 | 0.018 ± 0.013 | -0.007 ± 0.0042 | -0.0375 ± 0.00071 | 0.054 ± 0.051 | 0.0155 ± 0.0064 | -0.0365 ± 0.005 | 0.02 ± 0.065 | 0.0175 ± 0.044 | -0.0375 ± 0.071 | 0.0565 ± 0.0078 | -0.013 ± 0.0071 | -0.0215 ± 0.046 |
| LPS:CD142/Tissue Factor | 0.0045 ± 0.018 | 0.0285 ± 0.016 | 0.038 ± 0.0085 | 0.032 ± 0.014 | 0.006 ± 0.014 | -0.0205 ± 0.032 | 0.015 ± 0.033 | 0.0185 ± 0.0092 | 0.034 ± 0.038 | 0.0025 ± 0.016 | 0.015 ± 0.061 | 0.013 ± 0.024 | 0.006 ± 0.0057 | -0.019 ± 0.023 | -0.0025 ± 0.005 | -0.007 ± 0.013 | 0.0245 ± 0.005 | -0.0035 ± 0.028 | 0.002 ± 0.061 | -0.0245 ± 0.047 |
| BF4T:CD54/ICAM-1 | -0.003 ± 0.0014 | -0.0215 ± 0.019 | -0.015 ± 0.0099 | -0.0065 ± 0.015 | -0.017 ± 0.0099 | 0.002 ± 0.0085 | -0.0025 ± 0.032 | 0.0075 ± 0.032 | -0.0025 ± 0.018 | -0.007 ± 0.0057 | 0.012 ± 0.027 | -0.005 ± 0.0099 | -0.0065 ± 0.0064 | -0.002 ± 0.0057 | -0.022 ± 0.0071 | -0.011 ± 0.0085 | 0.004 ± 0.0071 | -0.0065 ± 0.011 | -0.013 ± 0.0042 | 0.0015 ± 0.015 |
| SAg:SRB | 0.0065 ± 0.011 | 0.0015 ± 0.016 | -0.001 ± 0.0085 | -0.001 ± 0.0042 | -0.0105 ± 0.0078 | -0.0055 ± 0.0078 | -0.0145 ± 0.0021 | 0 ± 0.0028 | 0.007 ± 0.013 | 0.0005 ± 0.0064 | 0.0045 ± 0.00071 | -0.007 ± 0.0057 | -0.0075 ± 0.0064 | -0.005 ± 0.014 | -0.0155 ± 0.013 | 0.001 ± 0.011 | -0.0385 ± 0.016 | -0.018 ± 0.025 | -0.0125 ± 0.011 | -0.0095 ± 0.018 |
| LPS:CXCL8/IL-8 | 0.0065 ± 0.03 | 0.0135 ± 0.005 | 0.0145 ± 0.0021 | 0.006 ± 0.045 | 0.016 ± 0.047 | -0.0155 ± 0.019 | -0.008 ± 0.02 | 0.018 ± 0.024 | 0.015 | 0.0085 ± 0.021 | 0.0385 ± 0.021 | -0.035 ± 0.038 | -0.024 ± 0.031 | 0.004 ± 0.0014 | 0.0085 ± 0.033 | 0.027 ± 0.03 | 0.105 ± 0.059 | -0.01 ± 0.038 | -0.0025 ± 0.032 | 0.0115 ± 0.0078 |
| 4H:CD62P/P-selectin | 0.028 ± 0.075 | 0.049 ± 0.033 | -0.0635 ± 0.044 | -0.017 ± 0.03 | -0.02 ± 0.028 | -0.0185 ± 0.042 | 0.0005 ± 0.057 | -0.011 ± 0.04 | -0.004 | 0.014 ± 0.0014 | 0.0275 ± 0.013 | 0.0275 ± 0.043 | -0.0285 ± 0.087 | -0.051 ± 0.071 | 0.007 ± 0.018 | 0.0035 ± 0.016 | 0.0605 ± 0.05 | 0.002 ± 0.0099 | 0.049 ± 0.034 | 0.015 ± 0.02 |
| BF4T:MMP-3 | -0.006 ± 0.034 | -0.0015 ± 0.0078 | 0.0545 ± 0.021 | -0.0975 ± 0.022 | -0.057 ± 0.041 | -0.0025 ± 0.012 | -0.014 ± 0.02 | -0.007 ± 0.023 | -0.001 ± 0.0028 | -0.004 ± 0.0028 | 0.031 ± 0.025 | 0.0015 ± 0.00071 | -0.0115 ± 0.026 | 0.0205 ± 0.059 | -0.027 ± 0.023 | -0.011 | 0.046 ± 0.048 | 0.0075 ± 0.0021 | -0.005 ± 0.02 | 0.0065 ± 0.012 |
| 3C:CD87/uPAR | -0.0105 ± 0.0092 | -0.0065 ± 0.0092 | 0.0045 ± 0.018 | -0.007 ± 0.0028 | -0.019 ± 0.028 | -0.0265 ± 0.0092 | -0.0065 ± 0.0092 | 0.0095 ± 0.0064 | 0.016 ± 0.044 | -0.013 ± 0.013 | 0.0195 ± 0.011 | 0.0035 ± 0.012 | -0.002 ± 0.0042 | 0.009 ± 0.0042 | 0.0015 ± 0.0021 | -0.0115 ± 0.026 | 0.0045 ± 0.013 | -0.014 ± 0.082 | -0.0435 ± 0.07 | -0.0375 ± 0.066 |
| BF4T:tPA | -0.0055 ± 0.012 | -0.003 ± 0.011 | 0.0065 ± 0.012 | -0.002 ± 0.0057 | -0.037 ± 0.031 | -0.002 ± 0.037 | 0.003 ± 0.028 | 0.0475 ± 0.022 | -0.003 ± 0.0028 | -0.024 ± 0.018 | 0.0155 ± 0.059 | -0.009 ± 0.018 | -0.001 ± 0.033 | 0.016 ± 0.064 | -0.0125 ± 0.005 | -0.0145 ± 0.015 | 0.004 ± 0.073 | -0.0065 ± 0.013 | 0.0015 ± 0.005 | 0.0135 ± 0.018 |
| BF4T:IL-1alpha | 0.0015 ± 0.022 | -0.001 ± 0.011 | 0.0065 ± 0.0092 | -0.0155 ± 0.021 | -0.014 ± 0.03 | -0.02 ± 0.0014 | -0.019 ± 0.014 | 0.0085 ± 0.012 | -0.004 ± 0.0099 | 0.0085 ± 0.0035 | 0.006 ± 0.021 | -0.0025 ± 0.00071 | -0.009 ± 0.0099 | 0.021 ± 0.03 | -0.0085 ± 0.023 | -0.0015 ± 0.005 | 0.013 ± 0.0099 | 0.005 ± 0.02 | -0.0045 ± 0.012 | 0.016 ± 0.0071 |
| BE3C:CXCL10/IP-10 | 0.018 ± 0.052 | 0.022 ± 0.033 | 0.004 ± 0.052 | 0.032 ± 0.031 | 0.022 ± 0.021 | -0.006 ± 0.021 | -0.001 ± 0.0099 | 0.017 ± 0.021 | -0.003 ± 0.0057 | 0 ± 0.0014 | 0.005 ± 0.013 | -0.007 ± 0.011 | -0.0125 ± 0.016 | 0.002 ± 0.0099 | 0.0055 ± 0.022 | 0.0065 ± 0.0092 | 0.0045 ± 0.011 | -0.0025 ± 0.00071 | -0.0175 ± 0.012 | 0.0075 ± 0.018 |
| 4H:VEGFR2 | 0.002 ± 0.047 | -0.004 ± 0.017 | 0.0155 ± 0.0021 | -0.0185 ± 0.037 | -0.0115 ± 0.033 | -0.0255 ± 0.015 | -0.005 ± 0.042 | 0.012 ± 0.05 | -0.045 ± 0.016 | -0.06 ± 0.011 | -0.016 ± 0.047 | 0.0095 ± 0.04 | 0.0065 ± 0.033 | -0.0085 ± 0.026 | 0.016 ± 0.027 | 0.022 ± 0.013 | 0.012 ± 0.054 | 0.018 ± 0.024 | 0.01 | 0.0075 ± 0.029 |
